Assay results published in PMC11443518, “Undescribed Amaryllidaceae Alkaloids from Zephyranthes citrina and Their Cytotoxicity” (Journal of Natural Products, 2024).
pIC50: −log10 of the molar value. Read-outs that look alike come from different tables or passages of the source.

Assays:
hAChE = biological target: T1, hAChE (Homo sapiens, UniProt P22303); assay: biochemical; assay type: biochemical; conditions: recombinant AChE, Ellman, 37 °C
T1 construct: purchased University Hradec Kralove, Department of Chemistry, Faculty of Science
T1 sequence (P22303 32-614): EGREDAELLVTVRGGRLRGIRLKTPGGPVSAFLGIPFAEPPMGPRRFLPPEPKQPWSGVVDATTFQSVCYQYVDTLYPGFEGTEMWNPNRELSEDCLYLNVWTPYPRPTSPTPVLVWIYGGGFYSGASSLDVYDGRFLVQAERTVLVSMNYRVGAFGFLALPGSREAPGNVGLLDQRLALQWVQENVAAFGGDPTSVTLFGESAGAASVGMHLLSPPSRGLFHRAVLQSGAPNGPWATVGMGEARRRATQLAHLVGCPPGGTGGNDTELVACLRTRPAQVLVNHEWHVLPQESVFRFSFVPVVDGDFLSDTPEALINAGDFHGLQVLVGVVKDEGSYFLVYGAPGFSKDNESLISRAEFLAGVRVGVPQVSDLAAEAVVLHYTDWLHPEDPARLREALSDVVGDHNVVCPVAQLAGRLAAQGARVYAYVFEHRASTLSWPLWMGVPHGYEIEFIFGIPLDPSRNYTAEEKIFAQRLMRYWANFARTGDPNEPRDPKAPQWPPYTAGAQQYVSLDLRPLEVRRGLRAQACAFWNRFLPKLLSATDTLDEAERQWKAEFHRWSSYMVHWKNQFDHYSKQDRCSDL
Protocol: (§1) The hAChE and hBChE activities were determined using a modified method of Ellman, as described by Hrabinova and co-workers against recombinant AChE and recombinant BChE (purchased from University Hradec Kralove, Department of Chemistry, Faculty of Science).[43] Other used chemicals were phosphate buffer solution (PBS, pH = 7.4), 5,5′-dithio-bis(2-nitrobenzoic) acid (Ellman’s reagent, DTNB), acetylthiocholine iodide (ATChI), butyrylthiocholine iodide (BTChI), and dimethyl sulfoxide (DMSO) (all chemicals were purchased from Sigma-Aldrich, Prague, Czech Republic).
(§2) Briefly, 8.3 μL of the corresponding enzyme, 283 μL of 5 mM DTNB, and 8.3 μL of the sample dilution in DMSO in different concentrations were added to the microplate. These solutions were incubated for 5 min at 37 °C. Then, 33.3 μL of 10 mM substrate (ATChI or BTChI) was added to initiate the reaction, and the whole reaction mixture was incubated for 2 min at 37 °C. […] This difference after 1 min was used to calculate the percentage of inhibitory potential of the given derivative. Each measurement was repeated three times for every concentration of the compound. 8.3 μL DMSO was used as a blank. The % inhibition was calculated according to the following formula: [drawing 3] where ΔABl is the increase of absorbance of the blank sample and ΔASa is the increase of absorbance of the measured sample.

hBChE = biological target: T2, hBChE (Homo sapiens, UniProt P06276); assay: biochemical; assay type: biochemical; conditions: recombinant BChE, Ellman, 37 °C
T2 construct: purchased University Hradec Kralove, Department of Chemistry, Faculty of Science
T2 sequence (P06276 29-602): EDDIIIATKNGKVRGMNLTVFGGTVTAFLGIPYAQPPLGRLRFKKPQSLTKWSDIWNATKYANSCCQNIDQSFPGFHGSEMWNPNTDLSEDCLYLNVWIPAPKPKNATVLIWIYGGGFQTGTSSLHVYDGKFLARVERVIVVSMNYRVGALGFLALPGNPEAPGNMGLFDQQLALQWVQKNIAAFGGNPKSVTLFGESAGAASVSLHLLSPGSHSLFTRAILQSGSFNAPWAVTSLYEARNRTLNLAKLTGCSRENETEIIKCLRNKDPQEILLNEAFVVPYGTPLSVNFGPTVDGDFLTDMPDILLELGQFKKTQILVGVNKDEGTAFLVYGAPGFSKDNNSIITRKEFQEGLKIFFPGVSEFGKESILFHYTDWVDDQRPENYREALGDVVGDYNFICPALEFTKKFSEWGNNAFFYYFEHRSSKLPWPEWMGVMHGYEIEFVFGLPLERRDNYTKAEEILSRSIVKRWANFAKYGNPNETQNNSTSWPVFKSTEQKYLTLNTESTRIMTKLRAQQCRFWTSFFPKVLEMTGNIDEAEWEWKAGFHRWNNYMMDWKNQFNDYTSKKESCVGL
Protocol: as §1, §2

SAOS-2 (osteosarcoma) = assay: WST-1 cell proliferation assay, cytotoxicity screening; assay type: cell-based; conditions: Homo sapiens, read-out: growth percent (GP) SAOS-2
Description: (§3) Selected human tumor and nontumor cell lines Jurkat (acute T-cell leukemia), MOLT-4 (acute lymphoblastic leukemia), A549 (lung carcinoma), HT-29 (colorectal adenocarcinoma), PANC-1 (pancreas epithelioid carcinoma), A2780 (ovarian carcinoma), HeLa (cervix adenocarcinoma), MCF-7 (breast adenocarcinoma), SAOS-2 (osteosarcoma) and MRC-5 (nontumor lung fibroblasts) were purchased from European Collection of Authenticated Cell Cultures (ECACC, Salisbury, UK) and cultured according to the provider’s culture method guidelines. […] The cells in low passage number (nontumor primary cell line MRC-5 was used for a maximum of 10 passages and cancer cell lines were used for a maximum of 20 passages) and in an exponential growth phase were used for this study.
(§4) Each cell line was seeded at a previously established optimal density (1 × 10^3 to 50 × 10^3 cells per well) in a 96-well plate (TPP, Trasadingen, Switzerland) and cells were allowed to settle overnight. During screening tests for cytotoxicity, cells were treated with alkaloids at a final concentration of 10 μM for 48 h. Doxorubicin (Sigma-Aldrich, St. Louis, USA), at a concentration of 1 μM, was used as a positive control. At the end of the culture period, the WST-1 proliferation assay (Roche, Basel, Switzerland) was performed according to the manufacturer’s protocol. The absorbance was determined using a Tecan Spark microplate reader (Tecan, Männedorf, Switzerland). Each value is the mean of three independent experiments and represents the percentage of the proliferation of control, nontreated cells (100%). The growth percent (GP) value as the mean of the proliferation decrease was calculated for each cell line and derivative tested.

[1] = test system: A2780 (ovarian carcinoma); assay: as above; assay type: cell-based; conditions: Homo sapiens, read-out: growth percent (GP) A2780
Description: as §3, §4

[2] = test system: MRC-5 (nontumor lung fibroblasts); assay: as above; assay type: cell-based; conditions: Homo sapiens, read-out: growth percent (GP) MRC-5
Description: as §3, §4

[3] = test system: Jurkat (acute T-cell leukemia); assay: as above; assay type: cell-based; conditions: Homo sapiens, 48 h, read-out: growth percent (GP) Jurkat
Description: as §3, §4

[4] = test system: HeLa (cervix adenocarcinoma); assay: as above; assay type: cell-based; conditions: Homo sapiens, 48 h, read-out: growth percent (GP) HeLa
Description: as §3, §4

[5] = test system: PANC-1 (pancreas epithelioid carcinoma); assay: as above; assay type: cell-based; conditions: Homo sapiens, read-out: growth percent (GP) PANC-1
Description: as §3, §4

A549 (lung carcinoma) = assay: as above; assay type: cell-based; conditions: Homo sapiens, read-out: growth percent (GP) A549
Description: as §3, §4

[6] = test system: HT-29 (colorectal adenocarcinoma); assay: as above; assay type: cell-based; conditions: Homo sapiens, read-out: growth percent (GP) HT-29
Description: as §3, §4

[7] = test system: MCF-7 (breast adenocarcinoma); assay: as above; assay type: cell-based, human; conditions: for activity at 10 µM: Homo sapiens, read-out: growth percent (GP) MCF-7
Description: as §3, §4

[8] = test system: MOLT-4 (acute lymphoblastic leukemia); assay: as above; assay type: cell-based, human; conditions: for activity at 10 µM: Homo sapiens, read-out: growth percent (GP) MOLT-4
Description: as §3, §4

[9] = test system: nine human tumor and one nontumor cell lines; assay: Cytotoxicity screening across the whole panel of cell lines; assay type: cell-based; conditions: for activity at 10 µM: Homo sapiens, read-out: GP value across the tested cell lines
Description: Concerning the cytotoxicity of alkaloids isolated from Z. citrina, initially, Prakash and Vedanayaki investigated the MeOH extract of the bulbs for its in vitro cytotoxic activity using the MTT assay against three human cancer cell lines from different tissue origins: cervical cancer (HeLa), breast cancer (MCF-7), and oral squamous carcinoma (SCC-9). […] In this context, and to assess potential negative effects on human cell cultures, compounds 1, and 3–27 were screened in our study for cytotoxicity using a 10 μM single-dose regimen. The results were compared with those using the clinically approved antineoplastic agent doxorubicin at 1 μM. The effect on cell growth was investigated on nine human tumor and one nontumor cell lines, namely Jurkat (acute T-cell leukemia), MOLT-4 (acute lymphoblastic leukemia), A549 (lung carcinoma), HT-29 (colorectal adenocarcinoma), PANC-1 (pancreas epithelioid carcinoma), A2780 (ovarian carcinoma), HeLa (cervix adenocarcinoma), MCF-7 (breast adenocarcinoma), SAOS-2 (osteosarcoma) and MRC-5 (nontumor lung fibroblasts). […] No toxicity is valuable information, especially for compound 18, as it is a potent inhibitor of hAChE and hBChE.[27]
Selected human tumor and nontumor cell lines Jurkat (acute T-cell leukemia), MOLT-4 (acute lymphoblastic leukemia), A549 (lung carcinoma), HT-29 (colorectal adenocarcinoma), PANC-1 (pancreas epithelioid carcinoma), A2780 (ovarian carcinoma), HeLa (cervix adenocarcinoma), MCF-7 (breast adenocarcinoma), SAOS-2 (osteosarcoma) and MRC-5 (nontumor lung fibroblasts) were purchased from European Collection of Authenticated Cell Cultures (ECACC, Salisbury, UK) and cultured according to the provider’s culture method guidelines. All cell lines were maintained at 37 °C in a humidified 5% carbon dioxide and 95% air incubator. The cells in low passage number (nontumor primary cell line MRC-5 was used for a maximum of 10 passages and cancer cell lines were used for a maximum of 20 passages) and in an exponential growth phase were used for this study.
as §4

[10] = 10 μM single dose, 48-h interval, all tested cell lines
[11] = c = 10 μM, 48 h, % of proliferation of nontreated control
[12] = SAOS-2, c = 10 μM, 48 h, % of proliferation of nontreated control
[13] = A2780, c = 10 μM, 48 h, % of proliferation of nontreated control
[14] = MRC5, c = 10 μM, 48 h, % of proliferation of nontreated control
[15] = c = 10 μM, % of proliferation of nontreated control
[16] = PANC-1, c = 10 μM, 48 h, % of proliferation of nontreated control
[17] = A549, c = 10 μM, 48 h, % of proliferation of nontreated control
[18] = HT-29, c = 10 μM, 48 h, % of proliferation of nontreated control
[19] = MCF7, c = 10 μM, 48 h, % of proliferation of nontreated control
[20] = MOLT-4, c = 10 μM, 48 h, % of proliferation of nontreated control

Compound | activity at 10 µM (SAOS-2 (osteosarcoma); SAOS-2, 48 h) [%] | activity at 10 µM ([1]; A2780, 48 h) [%] | activity at 10 µM ([2]; MRC5, 48 h) [%] | activity at 10 µM [3] [%] | activity at 10 µM [4] [%] | activity at 10 µM ([5]; PANC-1, 48 h) [%] | activity at 10 µM (A549 (lung carcinoma); A549, 48 h) [%] | activity at 10 µM ([6]; HT-29, 48 h) [%] | activity at 10 µM ([7]; MCF7, 48 h) [%] | activity at 10 µM ([8]; MOLT-4, 48 h) [%] | activity at 10 µM ([9]; 48 h) [%] | other results
COc1cc2c(cc1OC)[C@@H]1[C@H](O)[C@@H](OC)[C@H](O)C3=CCN(C2=O)[C@H]31 [Compound 2, 6-oxonarcissidine] | – | – | – | – | – | – | – | – | – | – | – | pIC50 (hAChE): < 4.00; pIC50 (hBChE): < 4.00
O[C@@H]1C=C[C@]23CCN(Cc4cc5c(cc42)OCO5)[C@H]3C1 [Compound 14] | 79 | 98 | 83 | 91 | 100 | 84 | 80 | 84 | 79 | 92 | > 50 | –
COc1cc2c(cc1OC)[C@@]13C=CC(O)C[C@@H]1N(CC3)C2 (some centres unmarked) [Compound 15, maritidine] | 94 | 94 | 104 | 104 | 101 | 91 | 95 | 93 | 98 | 100 | > 50 | GP value across the tested cell lines [9, 10]: lack of inhibitory activity
COc1cc2c(cc1O)CN1CC[C@@]23C=CC(O)C[C@H]13 (some centres unmarked) [Compound 16] | 98 | 101 | 97 | 102 | 114 | 101 | 106 | 103 | 105 | 110 | > 50 | –
COC1C=C[C@@]23CCN(Cc4cc5c(cc42)OCO5)[C@@H]3C1 (some centres unmarked) [Compound 17] | 76 | 55 | 82 | 52 | 75 | 77 | 60 | 71 | 49 | 32 | > 50 | growth percent (GP) MCF-7 [7, 11]: slight inhibition of growth; growth percent (GP) MOLT-4 [8, 11]: slight inhibition of growth
COc1cc(-c2cccc3c2N(C)CC3)c(CN2CC[C@@]34C=C[C@H](O)C[C@@H]3Oc3c(OC)ccc(c34)C2)c(OC)c1OC [Compound 18, narcielline] | 106 | 88 | 111 | 103 | 90 | 111 | 110 | 106 | 115 | 95 | > 50 | –
COc1cc2c(c(OC)c1OC)[C@@H](O)O[C@@H]1CC=C3CCN(C)[C@H]3[C@H]21 [Compound 21] | – | – | – | – | – | – | – | – | – | – | – | activity at 10 µM (SAOS-2 (osteosarcoma); [12]): 105%; activity at 10 µM [1, 13]: 95%; activity at 10 µM [2, 14]: 101%; activity at 10 µM [3, 15]: 91%; activity at 10 µM [4, 15]: 112%; activity at 10 µM [5, 16]: 90%; activity at 10 µM (A549 (lung carcinoma); [17]): 101%; activity at 10 µM [6, 18]: 83%; activity at 10 µM [7, 19]: 92%; activity at 10 µM [8, 20]: 93%; activity at 10 µM [9, 10]: > 50%
COc1cc2c(cc1O)C(=O)O[C@@H]1CC=C3CCN(C)[C@H]3[C@H]21 [Compound 22] | 103 | 94 | 93 | 100 | 96 | 92 | 109 | 106 | 102 | 100 | > 50 | –
COc1cc2c(cc1OC)[C@@H]1[C@H](O)[C@@H](O)C=C3CCN(C2)[C@H]31 [Compound 24] | 98 | 99 | 96 | 109 | 116 | 109 | 104 | 114 | 104 | 103 | > 50 | –
COc1cc2c(cc1O)[C@@H]1[C@H](O)[C@@H](OC)C=C3CCN(C2)[C@H]31 [Compound 25] | – | – | – | – | – | – | – | – | – | – | – | activity at 10 µM (SAOS-2 (osteosarcoma); [12]): 71%; activity at 10 µM [1, 13]: 125%; activity at 10 µM [2, 14]: 92%; activity at 10 µM [3, 15]: 91%; activity at 10 µM [4, 15]: 110%; activity at 10 µM [5, 16]: 83%; activity at 10 µM (A549 (lung carcinoma); [17]): 83%; activity at 10 µM [6, 18]: 94%; activity at 10 µM [7, 19]: 102%; activity at 10 µM [8, 20]: 88%; activity at 10 µM [9, 10]: > 50%
